Data published in the supplement of paper PMC10307832.

Key:
Assay in all cases: relative viability (nuclei count vs DMSO), 5 days (fraction); higher = more cells survive
HOP-62 = tested on: HOP-62
In short: (§1)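 Dosing by pin tool came one day after lung cancer cell lines were seeded in 1536-well plates, using either one drug or a fixed anchor-drug dose plus five library-drug doses (not always all listed) in √10 steps. After 5 days, nuclei were counted on 4× images. Relative viability is treated-well nuclei count divided by vehicle-well nuclei count, and values are medians of duplicate plates.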

NCI-H23 = tested on: NCI-H23
In short: as §1

NCI-H2228 = tested on: NCI-H2228
In short: as §1

NCI-H1793 = tested on: NCI-H1793
In short: as §1

NCI-H1395 = tested on: NCI-H1395
In short: as §1

ChaGo-K-1 = tested on: ChaGo-K-1
In short: as §1

NCI-H2405 = tested on: NCI-H2405
In short: as §1

LC-2-ad = tested on: LC-2-ad
In short: as §1

NCI-H2126 = tested on: NCI-H2126
In short: as §1

EMC-BAC-2 = tested on: EMC-BAC-2
In short: as §1

NCI-H2023 = tested on: NCI-H2023
In short: as §1

NCI-H1993 = tested on: NCI-H1993
In short: as §1

NCI-H358 = tested on: NCI-H358
In short: as §1

NCI-H1944 = tested on: NCI-H1944
In short: as §1

NCI-H838 = tested on: NCI-H838
In short: as §1

ABC-1 = tested on: ABC-1
In short: as §1

SK-LU-1 = tested on: SK-LU-1
In short: as §1

HARA = tested on: HARA
In short: as §1

COR-L23 = tested on: COR-L23
In short: as §1

HCC-15 = tested on: HCC-15
In short: as §1

## O=c1cc(N2CCOCC2)oc2c(-c3cccc4c3sc3ccccc34)cccc12 + CCNC(=O)c1noc(-c2cc(C(C)C)c(O)cc2O)c1-c1ccc(CN2CCOCC2)cc1 [Luminespib] (partner 0.01 µM)
HOP-62; first compound 0.01 µM
  relative viability: 1.05
HOP-62; first compound 0.03162 µM
  relative viability: 0.822
HOP-62; first compound 0.1 µM
  relative viability: 0.842
HOP-62; first compound 0.3162 µM
  relative viability: 1.03
HOP-62; first compound 1 µM
  relative viability: 0.974
NCI-H23; first compound 0.01 µM
  relative viability: 0.194
NCI-H23; first compound 0.03162 µM
  relative viability: 0.194
NCI-H23; first compound 0.3162 µM
  relative viability: 0.239
NCI-H23; first compound 1 µM
  relative viability: 0.206
NCI-H2228; first compound 0.01 µM
  relative viability: 0.151
NCI-H2228; first compound 0.03162 µM
  relative viability: 0.112
NCI-H2228; first compound 0.1 µM
  relative viability: 0.125
NCI-H2228; first compound 0.3162 µM
  relative viability: 0.191
NCI-H2228; first compound 1 µM
  relative viability: 0.133
NCI-H1793; first compound 0.01 µM
  relative viability: 0.159
NCI-H1793; first compound 0.1 µM
  relative viability: 0.173
NCI-H1793; first compound 0.3162 µM
  relative viability: 0.134
NCI-H1793; first compound 1 µM
  relative viability: 0.18
NCI-H1395; first compound 0.01 µM
  relative viability: 0.726
NCI-H1395; first compound 0.03162 µM
  relative viability: 0.75
NCI-H1395; first compound 0.1 µM
  relative viability: 0.683
NCI-H1395; first compound 0.3162 µM
  relative viability: 0.622
NCI-H1395; first compound 1 µM
  relative viability: 0.532
ChaGo-K-1; first compound 0.01 µM
  relative viability: 0.689
ChaGo-K-1; first compound 0.03162 µM
  relative viability: 0.682
ChaGo-K-1; first compound 0.1 µM
  relative viability: 0.714
ChaGo-K-1; first compound 0.3162 µM
  relative viability: 0.582
ChaGo-K-1; first compound 1 µM
  relative viability: 0.689
NCI-H2405; first compound 0.01 µM
  relative viability: 0.712
NCI-H2405; first compound 0.03162 µM
  relative viability: 0.571
NCI-H2405; first compound 0.1 µM
  relative viability: 0.722
NCI-H2405; first compound 0.3162 µM
  relative viability: 0.717
NCI-H2405; first compound 1 µM
  relative viability: 0.681
LC-2-ad; first compound 0.01 µM
  relative viability: 1.04
LC-2-ad; first compound 0.03162 µM
  relative viability: 1.12
LC-2-ad; first compound 0.1 µM
  relative viability: 0.978
LC-2-ad; first compound 0.3162 µM
  relative viability: 1.03
LC-2-ad; first compound 1 µM
  relative viability: 1.13
NCI-H2126; first compound 0.01 µM
  relative viability: 0.923
NCI-H2126; first compound 0.03162 µM
  relative viability: 0.893
NCI-H2126; first compound 0.1 µM
  relative viability: 0.922
NCI-H2126; first compound 0.3162 µM
  relative viability: 0.93
NCI-H2126; first compound 1 µM
  relative viability: 0.756
EMC-BAC-2; first compound 0.01 µM
  relative viability: 1.21
EMC-BAC-2; first compound 0.03162 µM
  relative viability: 1.24
EMC-BAC-2; first compound 0.1 µM
  relative viability: 1.14
EMC-BAC-2; first compound 0.3162 µM
  relative viability: 1.07
EMC-BAC-2; first compound 1 µM
  relative viability: 1.11
NCI-H2023; first compound 0.01 µM
  relative viability: 0.672
NCI-H2023; first compound 0.03162 µM
  relative viability: 0.72
NCI-H2023; first compound 0.1 µM
  relative viability: 0.793
NCI-H2023; first compound 0.3162 µM
  relative viability: 0.859
NCI-H2023; first compound 1 µM
  relative viability: 0.588
NCI-H1993; first compound 0.01 µM
  relative viability: 0.585
NCI-H1993; first compound 0.03162 µM
  relative viability: 0.891
NCI-H1993; first compound 0.1 µM
  relative viability: 0.984
NCI-H1993; first compound 0.3162 µM
  relative viability: 0.697
NCI-H1993; first compound 1 µM
  relative viability: 0.813
NCI-H358; first compound 0.01 µM
  relative viability: 0.235
NCI-H358; first compound 0.03162 µM
  relative viability: 0.397
NCI-H358; first compound 0.1 µM
  relative viability: 0.33
NCI-H358; first compound 0.3162 µM
  relative viability: 0.229
NCI-H358; first compound 1 µM
  relative viability: 0.332
NCI-H1944; first compound 0.01 µM
  relative viability: 0.785
NCI-H1944; first compound 0.03162 µM
  relative viability: 0.758
NCI-H1944; first compound 0.1 µM
  relative viability: 0.687
NCI-H1944; first compound 0.3162 µM
  relative viability: 0.728
NCI-H1944; first compound 1 µM
  relative viability: 0.749
NCI-H838; first compound 0.01 µM
  relative viability: 0.347
NCI-H838; first compound 0.03162 µM
  relative viability: 0.362
NCI-H838; first compound 0.1 µM
  relative viability: 0.406
NCI-H838; first compound 0.3162 µM
  relative viability: 0.294
NCI-H838; first compound 1 µM
  relative viability: 0.287
ABC-1; first compound 0.01 µM
  relative viability: 0.458
ABC-1; first compound 0.03162 µM
  relative viability: 0.452
ABC-1; first compound 0.1 µM
  relative viability: 0.796
ABC-1; first compound 0.3162 µM
  relative viability: 0.501
ABC-1; first compound 1 µM
  relative viability: 0.53
SK-LU-1; first compound 0.01 µM
  relative viability: 0.206
SK-LU-1; first compound 0.03162 µM
  relative viability: 0.234
SK-LU-1; first compound 0.1 µM
  relative viability: 0.201
SK-LU-1; first compound 0.3162 µM
  relative viability: 0.206
SK-LU-1; first compound 1 µM
  relative viability: 0.215
HARA; first compound 0.01 µM
  relative viability: 0.682
HARA; first compound 0.03162 µM
  relative viability: 0.679
HARA; first compound 0.1 µM
  relative viability: 0.806
HARA; first compound 0.3162 µM
  relative viability: 0.771
HARA; first compound 1 µM
  relative viability: 0.905
COR-L23; first compound 0.01 µM
  relative viability: 0.763
COR-L23; first compound 0.03162 µM
  relative viability: 0.654
COR-L23; first compound 0.1 µM
  relative viability: 0.724
COR-L23; first compound 0.3162 µM
  relative viability: 0.608
COR-L23; first compound 1 µM
  relative viability: 0.779
HCC-15; first compound 0.01 µM
  relative viability: 0.301
HCC-15; first compound 0.03162 µM
  relative viability: 0.294
HCC-15; first compound 0.1 µM
  relative viability: 0.604
HCC-15; first compound 0.3162 µM
  relative viability: 0.339
HCC-15; first compound 1 µM
  relative viability: 0.344
